Like-named read-outs stand apart in the source and are kept apart here.
Experiments:
Aβ40 = assay: In vitro BACE cell-based assay (Aβ40 sandwich ELISA, cells stably expressing APP); conditions: Homo sapiens
In short: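 Read-out is Aβ40 in cell supernatants, quantified by sandwich ELISA (capture 3 h, detection 2 h, both 4° C) with Delfia time-resolved fluorescence. Cells stably expressing APP were dosed across 10 concentrations from 100 μM or 10 μM top, 0.1% DMSO final; IC50 fitted from percent of control.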

Abeta 40 = assay: In vivo inhibition of beta-secretase: Abeta 40 reduction in CSF and brain of the rat; conditions: 10 mpk, after 4 hrs
From the text: In Vivo Inhibition of Beta-Secretase
Several animal models, including mouse, rat, dog, and monkey, may be used to screen for inhibition of beta-secretase activity in vivo following administration of a test compound sample. Animals used in this invention can be wild type, transgenic, or gene knockout animals. For example, the Tg2576 mouse model, prepared and conducted as described in Hsiao et al., 1996, Science 274, 99-102, and other non-transgenic or gene knockout animals are useful to analyze in vivo inhibition of Amyloid beta peptide (Abeta) production in the presence of inhibitory test compounds. Generally, 2 to 18 month old Tg2576 mice, gene knockout mice or non-transgenic animals are administered test compounds formulated in vehicles, such as cyclodextran, phosphate buffers, hydroxypropyl methylcellulose or other suitable vehicles. One to twenty-four hours following the administration of compound, animals are sacrificed, and brains as well as cerebrospinal fluid (CSF) and plasma are removed for analysis of A-beta levels and drug or test compound concentrations (Dovey et al., 2001, Journal of Neurochemistry, 76,173-181) Beginning at time 0, animals are administered by oral gavage, or other means of delivery such as intravenous injection, an inhibitory test compound of up to 100 mg/kg in a standard, conventional formulation, such as 2% hydroxypropyl methylcellulose, 1% Tween80. A separate group of animals receive 2% hydroxypropyl methylcellulose, 1% Tween80 alone, containing no test compound, and serve as a vehicle-control group. At the end of the test period, animals are sacrificed and brain tissues, plasma or cerebrospinal fluid are collected. Brains are either homogenized in 10 volumes (w/v) of 0.2% diethylamine (DEA) in 50 mM NaCl (Best et al., 2005, Journal of Pharmacology and Experimental Therapeutics, 313, 902-908), or in 10 volumes of 0.5% TritonX-100 in Tris-buffered saline (pH at about 7.6). Homogenates are centrifuged at 355,000 g, 4° C. for 30 minutes. CSF or brain supernatants are then analyzed for the presence of A-beta peptide by specific sandwich ELISA assays based on ECL (Electrochemiluminescence) technology. For example, rat Abeta40 is measured using biotinylated-4G8 (Signet) as a capture antibody and Fab40 (an in-house antibody specific to the C-terminal of Abeta40) as a detection antibody. For example, 4 hours after administration of 30 mg/kg oral dose of the test compound in 2% hydroxypropyl methylcellulose, 1% Tween80 (pH2.2) to 200 g male Sprague Dawley rats, amyloid beta peptide levels are measured for reduction by X % and Y % in cerebrospinal fluid and brain, respectively, when compared to the levels measured in the vehicle-treated rats. • Actual vehicles used: Oral: 2% HPMC, 1% Tween80, pH 2.2 • IV: 5% EtOH, 45% Propylene glycol in 5% Dextrose
The compounds of the invention may be shown to reduce the formation and/or deposition of amyloid beta peptide in the cerebrospinal fluid (CSF) as well as in the brain of a mouse or rat at either 3 mpk, 10 mpk or 30 mpk (mpk=mg compound per kg weight of the animal) dosing concentrations after 4 hrs.

BACE = BACE (Homo sapiens, UniProt P56817); assay: In vitro enzymatic BACE FRET assay; assay type: biochemical; conditions: average IC50, enzyme assay; read-out: BACE 1 FRET assay
Sequence of BACE (P56817 46-501, species assumed): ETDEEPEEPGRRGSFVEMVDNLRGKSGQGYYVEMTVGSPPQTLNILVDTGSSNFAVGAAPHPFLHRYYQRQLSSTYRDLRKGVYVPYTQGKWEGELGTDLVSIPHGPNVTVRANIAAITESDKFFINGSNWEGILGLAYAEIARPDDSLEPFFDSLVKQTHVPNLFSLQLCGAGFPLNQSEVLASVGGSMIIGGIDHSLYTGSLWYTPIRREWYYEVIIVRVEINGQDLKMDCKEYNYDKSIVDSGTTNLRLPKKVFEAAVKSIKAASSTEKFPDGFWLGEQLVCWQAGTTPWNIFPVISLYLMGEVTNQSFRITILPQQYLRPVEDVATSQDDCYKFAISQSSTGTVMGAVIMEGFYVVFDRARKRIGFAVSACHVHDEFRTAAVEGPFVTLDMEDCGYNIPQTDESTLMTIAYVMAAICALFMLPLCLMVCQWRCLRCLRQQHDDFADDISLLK
In short: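 Fluorescence […] after Tris quench reports cleavage of a 50 nM quenched peptide substrate over 1 h. Beforehand, 0.2 nM enzyme sits 1 h with inhibitor dilutions. Buffer: 0.05 M acetate pH 4.2, 100 uM genapol, 10% DMSO final.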

[1] = HEK293, average IC50, read-out: HEK cell assay
[2] = Abeta 40, rat CSF, read-out: % reduction of rat CSF levels at 10 pmk
[3] = Abeta 40, rat brain, read-out: % reduction of rat brain levels at 10 mpk
[4] = HEK293, average IC50, cell assay, HEK cells

SMILES: CC1(C#Cc2cc(F)c3c(c2)[C@]2(CCOC(N)=N2)c2cc(-c4cccnc4F)ccc2O3)COC1 [Example 17A, (S)-4′-fluoro-7′-(2-fluoropyridin-3-yl)-2′-((3-methyloxetan-3-yl)ethynyl)-5,6-dihydrospiro[[1,3]oxazine-4,9′-xanthen]-2-amine]
- IC50 (Aβ40; [1]): 2.6 nM
- inhibition in vivo at 10 mg/kg (Abeta 40; [2]): 44%
- inhibition in vivo at 10 mg/kg (Abeta 40; [3]): 37%
- IC50 (BACE): 3.3 nM

SMILES: NC1=N[C@@]2(COC1)c1cc(-c3cccnc3F)ccc1Oc1cnc(-c3ccnc(F)c3)cc12 [Example 30, (S)-7-(2-fluoropyridin-3-yl)-3-(2-fluoropyridin-4-yl)-2′,6′-dihydrospiro[chromeno[2,3-c]pyridine-5,3′-[1,4]oxazin]-5′-amine]
- IC50 (Aβ40; [4]): 1.7 nM
- inhibition in vivo at 10 mg/kg (Abeta 40; [2]): 67%
- inhibition in vivo at 10 mg/kg (Abeta 40; [3]): 62%
- IC50 (BACE): 0.3 nM

SMILES: NC1=N[C@@]2(COC1)c1cc(-c3cccnc3F)ccc1Oc1cnc(N3CCC(F)(F)CC3)cc12 [Example 32, (S)-3-(4,4-difluoropiperidin-1-yl)-7-(2-fluoropyridin-3-yl)-2′,6′-dihydrospiro[chromeno[2,3-c]pyridine-5,3′-[1,4]oxazin]-5′-amine]
- IC50 (Aβ40; [4]): 1.2 nM
- inhibition in vivo at 10 mg/kg (Abeta 40; [2]): 37%
- inhibition in vivo at 10 mg/kg (Abeta 40; [3]): 26%
- IC50 (BACE): 0.6 nM

SMILES: CC(C)(C)COc1cc2c(cn1)Oc1ccc(-c3cccnc3F)cc1[C@@]21COCC(N)=N1 [Example 33, (S)-7-(2-fluoropyridin-3-yl)-3-(neopentyloxy)-2′,6′-dihydrospiro[chromeno[2,3-c]pyridine-5,3′-[1,4]oxazin]-5′-amine]
- IC50 (Aβ40; [4]): 1.1 nM
- inhibition in vivo at 10 mg/kg (Abeta 40; [2]): 61%
- inhibition in vivo at 10 mg/kg (Abeta 40; [3]): 48%
- IC50 (BACE): 0.4 nM

SMILES: NC1=N[C@@]2(COC1)c1cc(-c3cccnc3F)ccc1Oc1c(F)cc(-c3ccnc(F)c3)cc12 [Example 36A, (S)-4′-fluoro-7′-(2-fluoropyridin-3-yl)-2′-(2-fluoropyridin-4-yl)-2,6-dihydrospiro[[1,4]oxazine-3,9′-xanthen]-5-amine]
- IC50 (Aβ40; [4]): 2.9 nM
- inhibition in vivo at 10 mg/kg (Abeta 40; [2]): 26%
- inhibition in vivo at 10 mg/kg (Abeta 40; [3]): 25%
- IC50 (BACE): 0.4 nM

SMILES: CC(C)(F)COc1cc(F)c2c(c1)[C@]1(COCC(N)=N1)c1cc(-c3cccnc3F)ccc1O2 [Example 37A, (S)-4′-fluoro-2′-(2-fluoro-2-methylpropoxy)-7′-(2-fluoropyridin-3-yl)-2,6-dihydrospiro[[1,4]oxazine-3,9′-xanthen]-5-amine]
- IC50 (Aβ40; [4]): 1.3 nM
- inhibition in vivo at 10 mg/kg (Abeta 40; [2]): 44%
- inhibition in vivo at 10 mg/kg (Abeta 40; [3]): 39%
- IC50 (BACE): 0.2 nM

SMILES: NC1=N[C@@]2(COC1)c1cc(-c3cccnc3F)ccc1Oc1c(F)cc(C3=CCOCC3)cc12 [Example 40, (S)-2′-(3,6-dihydro-2H-pyran-4-yl)-4′-fluoro-7′-(2-fluoropyridin-3-yl)-2,6-dihydrospiro[[1,4]oxazine-3,9′-xanthen]-5-amine]
- IC50 (Aβ40; [4]): 3 nM
- inhibition in vivo at 10 mg/kg (Abeta 40; [2]): 33%
- inhibition in vivo at 10 mg/kg (Abeta 40; [3]): 15%
- IC50 (BACE): 0.3 nM

SMILES: CC1(C#Cc2cc(F)c3c(c2)[C@]2(COCC(N)=N2)c2cc(-c4cccnc4F)ccc2O3)COC1 [Example 41, (S)-4′-fluoro-7′-(2-fluoropyridin-3-yl)-2′-((3-methyloxetan-3-yl)ethynyl)-2,6-dihydrospiro[[1,4]oxazine-3,9′-xanthen]-5-amine]
- IC50 (Aβ40; [4]): 1.9 nM
- inhibition in vivo at 10 mg/kg (Abeta 40; [2]): 13%
- inhibition in vivo at 10 mg/kg (Abeta 40; [3]): 23%
- IC50 (BACE): 0.5 nM

SMILES: CC(C)(C)COc1cnc2c(c1)[C@]1(COCC(N)=N1)c1cc(-c3cccnc3F)ccc1O2 [Example 55, (S)-7-(2-fluoropyridin-3-yl)-3-(neopentyloxy)-2′,6′-dihydrospiro[chromeno[2,3-b]pyridine-5,3′-[1,4]oxazin]-5′-amine]
- IC50 (Aβ40; [1]): 0.4 nM
- inhibition in vivo at 10 mg/kg (Abeta 40; [2]): 65%
- inhibition in vivo at 10 mg/kg (Abeta 40; [3]): 51%
- IC50 (BACE): 0.8 nM

SMILES: NC1=N[C@@]2(CCO1)c1cc(-c3cccnc3F)ccc1Oc1ncc(-c3ccnc(F)c3)cc12 [Example 60, (S)-7-(2-fluoropyridin-3-yl)-3-(2-fluoropyridin-4-yl)-5′,6′-dihydrospiro[chromeno[2,3-b]pyridine-5,4′-[1,3]oxazin]-2′-amine]
- IC50 (Aβ40; [1]): 11 nM
- inhibition in vivo at 10 mg/kg (Abeta 40; [2]): 56%
- inhibition in vivo at 10 mg/kg (Abeta 40; [3]): 25%
- IC50 (BACE): 12.2 nM

SMILES: CC1(C#Cc2cnc3c(c2)[C@]2(CCOC(N)=N2)c2cc(-c4cccnc4F)ccc2O3)COC1 [Example 61, (S)-7-(2-fluoropyridin-3-yl)-3-((3-methyloxetan-3-yl)ethynyl)-5′,6′-dihydrospiro[chromeno[2,3-b]pyridine-5,4′-[1,3]oxazin]-2′-amine]
- IC50 (Aβ40; [1]): 2.4 nM
- inhibition in vivo at 10 mg/kg (Abeta 40; [2]): 70%
- inhibition in vivo at 10 mg/kg (Abeta 40; [3]): 55%
- IC50 (BACE): 2.8 nM

SMILES: NC1=N[C@@]2(COC1)c1cc(-c3cccnc3)ccc1Oc1c(F)cc(C3=CCCOC3)cc12 [Example 63, (S)-2′-(5,6-dihydro-2H-pyran-3-yl)-4′-fluoro-7′-(pyridin-3-yl)-2,6-dihydrospiro[[1,4]oxazine-3,9′-xanthen]-5-amine]
- IC50 (Aβ40; [4]): 0.5 nM
- inhibition in vivo at 10 mg/kg (Abeta 40; [2]): 19%
- inhibition in vivo at 10 mg/kg (Abeta 40; [3]): 16%
- IC50 (BACE): 0.3 nM

SMILES: NC1=N[C@]2(COC1)c1cc(C3=CCOCC3)ccc1Oc1ccc(-c3cccnc3F)cc12 [Example 64, (R)-2′-(3,6-dihydro-2H-pyran-4-yl)-7′-(2-fluoropyridin-3-yl)-2,6-dihydrospiro[[1,4]oxazine-3,9′-xanthen]-5-amine]
- IC50 (Aβ40; [4]): 5.2 nM
- inhibition in vivo at 10 mg/kg (Abeta 40; [2]): 8%
- inhibition in vivo at 10 mg/kg (Abeta 40; [3]): 4%
- IC50 (BACE): 0.6 nM

SMILES: NC1=N[C@]2(COC1)c1cc(-c3ccnc(F)c3)ccc1Oc1ccc(-c3cccnc3F)cc12 [Example 65, (R)-2′-(2-fluoropyridin-3-yl)-7′-(2-fluoropyridin-4-yl)-2,6-dihydrospiro[[1,4]oxazine-3,9′-xanthen]-5-amine]
- IC50 (Aβ40; [4]): 18.2 nM
- inhibition in vivo at 10 mg/kg (Abeta 40; [2]): 14%
- inhibition in vivo at 10 mg/kg (Abeta 40; [3]): 55%
- IC50 (BACE): 1.6 nM

SMILES: NC1=N[C@@]2(COC1)c1cc(-c3cccnc3F)ccc1Oc1cnc(-c3ccc(F)c(F)c3)cc12 [Example 73, (5S)-3-(3,4-difluorophenyl)-7-(2-fluoro-3-pyridinyl)-6′H-spiro[chromeno[2,3-c]pyridine-5,3′-[1,4]oxazin]-5′-amine]
- IC50 (Aβ40; [4]): 2.7 nM
- inhibition in vivo at 10 mg/kg (Abeta 40; [2]): 62%
- inhibition in vivo at 10 mg/kg (Abeta 40; [3]): 42%
- IC50 (BACE): 0.3 nM

SMILES: NC1=N[C@@]2(COC1)c1cc(-c3cccnc3F)ccc1Oc1cnc(N3CCC(F)(F)C3)cc12 [Example 74, (5S)-3-(3,3-difluoro-1-pyrrolidinyl)-7-(2-fluoro-3-pyridinyl)-6′H-spiro[chromeno[2,3-c]pyridine-5,3′-[1,4]oxazin]-5′-amine]
- IC50 (Aβ40; [4]): 0.8 nM
- inhibition in vivo at 10 mg/kg (Abeta 40; [2]): 47%
- inhibition in vivo at 10 mg/kg (Abeta 40; [3]): 26%
- IC50 (BACE): 0.4 nM

SMILES: NC1=N[C@@]2(COC1)c1cc(-c3cccnc3F)ccc1Oc1c(F)cc(N3CCC(F)(F)CC3)cc12 [Example 86, (S)-2′-(4,4-difluoropiperidin-1-yl)-4′-fluoro-7′-(2-fluoropyridin-3-yl)-2,6-dihydrospiro[[1,4]oxazine-3,9′-xanthen]-5-amine]
- IC50 (Aβ40; [4]): 2.6 nM
- inhibition in vivo at 10 mg/kg (Abeta 40; [2]): 12%
- inhibition in vivo at 10 mg/kg (Abeta 40; [3]): 11%

Source: patent US9012446B2, “Amino-oxazines and amino-dihydrothiazine compounds as beta-secretase modulators and methods of use” (Amgen Inc., priority 2010, dated 2015)
